For experiment [1], the target named is T1, BbDHFR-TS (Babesia bovis, UniProt A7ASX7).
T1 construct: gene BBOV_II000780; full length 1-511, N-terminal 6xHis-Smt tag removed by Ulp1 without remnant, expressed in E. coli BL21 (DE3); DHFR about 1-186, 40-residue linker, TS C-terminal 285 residues
T1 sequence (A7ASX7 1-511): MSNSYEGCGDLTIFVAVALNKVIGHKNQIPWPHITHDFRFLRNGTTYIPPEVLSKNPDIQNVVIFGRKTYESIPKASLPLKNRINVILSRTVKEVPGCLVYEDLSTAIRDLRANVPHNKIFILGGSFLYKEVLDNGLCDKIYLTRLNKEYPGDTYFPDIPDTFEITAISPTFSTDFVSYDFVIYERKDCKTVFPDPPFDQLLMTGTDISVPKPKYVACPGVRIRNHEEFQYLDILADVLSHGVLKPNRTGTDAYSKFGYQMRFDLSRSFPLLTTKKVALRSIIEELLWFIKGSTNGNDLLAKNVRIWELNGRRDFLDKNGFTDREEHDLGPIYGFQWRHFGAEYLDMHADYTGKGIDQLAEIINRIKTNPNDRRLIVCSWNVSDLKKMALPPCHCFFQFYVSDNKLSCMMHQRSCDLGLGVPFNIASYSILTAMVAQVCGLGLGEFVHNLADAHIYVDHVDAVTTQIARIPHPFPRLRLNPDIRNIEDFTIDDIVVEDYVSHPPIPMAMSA
In words: X-ray crystal structures (co-purified 3k2h; cocrystallisation 3nrr). The format is binding. Conditions: DHFR site; with pemetrexed (3k2h) or raltitrexed (3nrr); oxidation state not stated beyond NADP.

Experiment [2] has as its target T1, BbDHFR-TS. In words: X-ray crystal structure, […] Å, cocrystallisation. In kind it is binding. Conditions: in both TS site (with dUMP) and DHFR site (with NADP); 5 mM raltitrexed, 2 mM dUMP, 2 mM NADP; 20 mM MgCl2, HEPES pH 7.5, 289 K.
Experiment [3] deals with T1, BbDHFR-TS. In words: X-ray crystal structures (soak 3k2h; cocrystallisation 3nrr). In kind it is binding. Conditions: TS active site; ternary complex with pemetrexed (3k2h) or raltitrexed (3nrr).
The target in experiment [4] is dihydrofolate reductase-thymidylate synthase from B. bovis (Babesia bovis (Texas T2Bo isolate)). In words: crystal structure; three crystal structures of BbDHFR-TS (apo; with dUMP, NADP and pemetrexed; with dUMP, NADP and raltitrexed); space group P1, homodimer in the asymmetric unit; crystals grown at 289 K, data at 100 K.
Experiment [5] deals with T1, BbDHFR-TS. In words: X-ray crystal structure, […] Å, soak. Conditions: in both TS site (with dUMP) and DHFR site (with NADP); 2 mM pemetrexed, 2.0 mM dUMP; PEG 8000, CHES pH 9.5, 289 K. The format is binding.

On to `NC(=O)c1ccc[n+]([C@@H]2O[C@H](COP(=O)(O)OP(=O)(O)OC[C@H]3O[C@@H](n4cnc5c(N)ncnc54)[C@H](OP(=O)(O)O)[C@@H]3O)[C@@H](O)[C@H]2O)c1` [NADP], for which the “X-ray crystal structures (co-purified 3k2h; cocrystallisation 3nrr)” value on BbDHFR-TS [1] was “pemetrexed and NADP bound in the DHFR subunit”.
Take `Cc1nc2ccc(CN(C)c3ccc(C(=O)N[C@@H](CCC(=O)O)C(=O)O)s3)cc2c(=O)[nH]1` [RTX, raltitrexed]: on BbDHFR-TS [2], the “X-ray crystal structure, 1.8 Å, cocrystallisation” value is “raltirexed rather than pemetrexed in both folate sites, as well as dUMP and NADP”.
Turning to `O=c1ccn([C@H]2C[C@H](O)[C@@H](COP(=O)(O)O)O2)c(=O)[nH]1` [dUMP], on BbDHFR-TS [3], the “X-ray crystal structures (soak 3k2h; cocrystallisation 3nrr)” value is “contains the antifolate pemetrexed and dUMP bound in the TS subunit”.
In general, stoichiometry N refers to the number of molecules, sites or subunits per partner or assembly. Take “dihydrofolate reductase-thymidylate synthase from B. bovis (enzyme)”: in experiment [4], the stoichiometry N is 2.
As to `Nc1nc(=O)c2c(CCc3ccc(C(=O)N[C@@H](CCC(=O)O)C(=O)O)cc3)c[nH]c2[nH]1` [PTX, pemetrexed], at BbDHFR-TS [5], the “X-ray crystal structure, 2.2 Å, soak” value was “contains the antifolate pemetrexed and dUMP bound in the TS subunit and pemetrexed and NADP”.

The values are drawn from publication PMC3169404, “Inhibitor-bound complexes of dihydrofolate reductase-thymidylate synthase from Babesia bovis” (Acta Crystallographica Section F: Structural Biology and …, 2011).
